We go through 3 compounds from patent US11980632B2 (priority 2020, dated 2024).

The assay deals with corona-pseudovirus. The assay is classed as cell-based, SARS-CoV-2.

`CN(C)C(=O)COC(=O)Cc1ccc(OC(=O)c2ccc(NC(=N)N)cc2)cc1` [Camostat]: the “infection with the corona-pseudovirus (degree of infection depending on drug concentration)” value (from here on “infection with the corona-pseudovirus”) is on record as “inhibited in a concentration-dependent manner”.

Regarding `CCN(CCO)CCCC(C)Nc1ccnc2cc(Cl)ccc12` (stereo not drawn) [hydroxychloroquinine], the “infection with the corona-pseudovirus” value is “inhibited in a concentration-dependent manner”.

For the compound heparin, the “infection with the corona-pseudovirus” value is given as “inhibited in a concentration-dependent manner”.
